In patent US11801307B2, “Antibody-polymer-drug conjugates” (priority 2016, dated 2023):
Entries after “also recorded” stand apart in the source; their conditions may differ.

Assays:
[1] = free drug; cited from earlier work
[2] = tested on: A2780 human ovarian carcinoma xenografts; conditions: 5 mg/kg EPI equivalent, day 20, s.c. model; cited from earlier work
[3] = biological target: T1, CD20 (Homo sapiens, UniProt P11836); assay: RTX-Cy5 binding on the surface of Ramos cells, with and without RTX pre-blocking
T1 construct: host or cells: Ramos Burkitt's lymphoma cells
T1 sequence (P11836 1-297): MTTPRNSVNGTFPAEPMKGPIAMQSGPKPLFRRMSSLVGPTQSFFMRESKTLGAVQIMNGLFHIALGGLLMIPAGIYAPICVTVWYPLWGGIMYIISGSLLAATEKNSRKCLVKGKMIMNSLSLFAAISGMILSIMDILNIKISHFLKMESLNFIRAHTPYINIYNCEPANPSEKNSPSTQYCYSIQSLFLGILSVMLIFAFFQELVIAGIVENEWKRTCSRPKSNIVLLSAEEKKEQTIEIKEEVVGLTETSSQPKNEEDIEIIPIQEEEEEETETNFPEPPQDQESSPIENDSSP
Experimental: Non-treated, cells in culture medium; RTX-Cy5, Ramos cells (2×10^5) were treated with 1 μg RTX-Cy5 at 4° C. for 30 min; RTX Blocked+RTX-Cy5, after pre-blocking by 10 μg RTX at 4° C. for 30 min, 1 μg RTX-Cy5 was added and incubated at 4° C. for 30 min. The cells were analyzed by flow cytometry. Data are reported as MFI, mean fluorescence intensity.
To ensure CD-20 antigen expression on the surface of the Ramos cells used, the Ramos cells were exposed to RTX labeled with Cy5 (RTX-Cy5). […] This confirmed the expression of CD20 on the surface of the Ramos cells, and their specific binding affinity to RTX.

[4] = tested on: Ramos cells; assay: In vitro cytotoxicity toward Ramos cells, CCK-8 assay; assay type: cell-based, human; conditions: 48 h
Experimental: The cytotoxicity of antibody and antibody-polymer-drug conjugates against Ramos cells was measured by CCK-8 assay (Dojindo). The cells were seeded in 96-well plates at the density of 10,000 cells (200 μl) per well in RMPI-1640 media containing 10% FBS. After 24 h, RTX, RTX-EPI RTX-P-EPI, mixture of RTX with P-EPI and IgG-P-EPI (0.3 mg/ml×15 μl for antibody) in medium was added and incubated at 37° C. for 48 h. The number of viable cells was estimated using CCK-8 kit according to the manufacturer's protocol. In brief, 50 μl 5× diluted CCK-8 solution was added and incubated at 37° C., 5% CO2 for 4 h, the absorbance was measured using a microplate reader at 450 nm (630 nm as reference). Untreated control cells were set as 100% viable.
The cytotoxicity of RTX-P-EPI against Ramos cells was first evaluated at the concentration of 0.15 μM (related to RTX). Unconjugated RTX, non-specific conjugate IgG-P-EPI and directly conjugated with free drug (RTX-EPI) were used as controls. The Ramos cells were incubated with the samples for 48 h and evaluated by CCK-8 assay (FIG. 6).
10^4 Ramos cells were seeded in each well of 96-well plates in 200 μl RPMI-1640 media containing 10% FBS. Different samples (0.3 mg/ml×15 μl) were added and incubated at 37° C. in a humidified atmosphere of 5% CO2 (v/v). After 48 h, the number of viable cells was estimated using CCK-8 kit at 450 nm (630 nm as reference). […]

[5] = tested on: Ramos B-cell lymphoma tumors; conditions: i.v., 4 doses at 3-day intervals, 20 mg/kg RTX or equivalent (EPI 1.5 mg/kg)
Experimental: Ramos cells (5×10^6) in 200 μl of PBS were subcutaneously inoculated in the right flank of 7- to 9-wk-old male NOD SCID mice. Tumor size was measured with a caliper, and tumor volume was calculated according to the formula: Tumor volume (mm^3)=½×length×[…], where the length (mm) is the longest and the width (mm) is the shortest dimension of the tumor. When the average tumor size reached 150±50 mm^3, treatment was initiated (n=4-5). […] Body weight variation was computed by the equation: variation=(WDayn−WDay0)/WDay0×100%. […] Saline was used as non-treated control. […] The data are presented as mean±SD (n=4-5).
NOD SCID mice were subcutaneously implanted with Ramos cells (5×10^6 cells/200 μl saline) into the right flank. […] Saline was injected as control. […] Mice were treated with 4 doses at 3-day intervals.
In addition, body weight of the mice was closely recorded during and after treatment. […] Four-doses were administered on days 11, 14, 17 and 20.

[6] = tested on: Raji cells; assay: Apoptosis induction in Raji cells, Annexin V/PI staining; assay type: cell-based, human; conditions: RTX alone
Experimental: Incubation time was 48 h.
Percentage of apoptotic cells was quantified by flow cytometry. All data are presented as mean±SD (n=3).
This raises the likelihood that this system will be efficient in the treatment of RTX-resistant disease.

[7] = Blood pharmacokinetics of 125I-labeled conjugates; assay type: in vivo, male NOD SCID mice; conditions: i.v. 3.5 mg/kg single dose
Experimental: The conjugates were radioiodinated by the Iodogen method as previously described (Liu et al., 2009). 7-9 week-old healthy male NOD/SCID mice (n=3) were intravenously injected with ^125I labeled RTX, RTX-P-EPI or IgG-P-EPI conjugates (0.1 mg, 20 μCi per mouse), respectively. At predetermined intervals, blood samples (10 μl) were taken from the tail vein, and the radioactivity of each sample was measured with Gamma Counter (Packard).
The pharmacokinetic properties of ^125I labeled RTX, RTX-P-EPI and IgG-P-EPI were evaluated in male NOD SCID mice. Antibody was radiolabeled by ^125I and i.v. injected at 3.5 mg/kg (based on antibody for RTX, RTX-P-EPI, and IgG-P-EPI) single dose.

[8] = Biodistribution of 125I-labeled conjugates in mice bearing s.c. Ramos tumors; assay type: in vivo, male NOD SCID mice; conditions: 72 h after intravenous injection
Experimental: For biodistribution study, 7-9 week-old male NOD SCID mice bearing s.c. Ramos tumors received intravenous injection of ^125I labeled RTX, RTX-P-EPI, or IgG-P-EPI (0.1 mg, 20 μCi per mouse). At 72 and 96 h after administration, the mice were sacrificed. Various tissues (heart, liver, spleen, lung, kidney, stomach, intestine, muscle, bone, brain and tumor) were harvested, weighed, and counted for radioactivity with Gamma Counter (Packard). Uptake of the conjugate was calculated as the percentage of the injected dose per gram of tissue (% ID/g). Data are presented as mean±standard deviation (n=3).
The biodistribution of RTX, RTX-P-EPI and IgG-P-EPI labeled by ^125I in male NOD SCID mice bearing s.c. xenograft tumor model was also compared.

[9] = tested on: low-grade NHL; conditions: disease progression or relapse after prior RTX; cited from earlier work

For `COc1cccc2c1C(=O)c1c(O)c3c(c(O)c1C2=O)C[C@@](O)(C(=O)CO)C[C@@H]3O[C@H]1C[C@H](N)[C@@H](O)[C@H](C)O1` [EPI, epirubicin], the terminal half-life [1] is given as 9 to 20 min and the “tumor size relative to baseline” value [2] is given as 1772±840 % of the baseline.
With RTX-Cy5 the “Cy5 signal of Ramos cells incubated with RTX-Cy5” value ([3]; 1 μg RTX-Cy5, 4° C., 30 min) was “high Cy5 signal” and the “Cy5 signal after CD20 receptors were blocked with over-saturation dose of RTX” value ([3]; pre-blocking by 10 μg RTX, then 1 μg RTX-Cy5) was “no Cy5 signal detectable”.
In the case of “RTX-EPI: control conjugate in which EPI was directly attached to RTX via maleimide, EPI/RTX 3.1”, the “kill of Ramos cells” value ([4]; 0.15 μM (related to RTX)) was 18% and the “antitumor effect (in words)” value [5] was “marginal effects”.
In the case of Rituximab [RTX, reference compound], the “cytotoxicity against Ramos cells (in words)” value ([4]; 0.15 μM) was “nearly undetectable”, the “change of apoptosis level on increase of antibody concentration from 0.2 μM to 2 μM” value [6] was “did not significantly enhance the apoptosis level; also recorded: did not increase” and the “antitumor effect (in words)” value [5] was “marginal effects”. For the same compound, the “AUC (total area under the blood concentration versus time curve)” value [7] was 716.46 ± 66.64 % ID h/mL, the “level in the tumor” value [8] was 0.71 % ID/g tissue and the “patients responding to RTX re-treatment” value [9] was 40%.
